Reference: patent US10550105B2 (Ribon Therapeutics Inc., priority 2018, dated 2020)

What was measured:
Experiment in all cases: Growth inhibition of cancer cell lines, 72 hrs (CellTiter-Glo)
Format in all cases: cell-based
EBC-1 = settings: Homo sapiens, lung, squamous cell carcinoma
Experimental: (§1) Example C: Inhibition of Cancer Cell Growth by Treatment with PARP7 Inhibitors
(§2) Table A-2 and Table A-3 (below) represents the concentration that causes 50% growth inhibition (GI50) in a panel of cancer cell lines with Compound 18B and Compound 561. Cells were plated into 384-well plates at a pre-specified density in fetal bovine serum-containing media. Cells were treated with compound or vehicle (DMSO) 24 hrs later, and a day zero plate was collected for analysis. Test compound plates were incubated continuously for 72 hrs (Table A-2) or 144 hours (Table A-3) cell growth was assessed using a luminescent cell viability assay (CellTiter-Glo, Promega). The GI50was determined by correcting for the cell count at time zero (time of treatment) and plotting data as percent growth relative to vehicle-treated cells.

IA-LM = settings: lung, large cell carcinoma
Experimental: as §1, §2

JHOS-2 = settings: ovary, adenocarcinoma
Experimental: as §1, §2

LS123 = settings: Homo sapiens, LS-123, large intestine, adenocarcinoma
Experimental: as §1, §2

OVISE = settings: ovary, clear cell carcinoma
Experimental: as §1, §2

TYK-nu = settings: ovary, undifferentiated carcinoma
Experimental: as §1, §2

Measured: GI50

N#Cc1ccc(N2CCN(C(=O)c3cccc(OC[C@@H]4c5ccccc5CN4c4cn[nH]c(=O)c4C(F)(F)F)c3)CC2)nc1 (single isomer, unassigned) [Example 18 Isomer B]
100 to 1000 nM: LS123 | OVISE
< 100 nM: all other assays above
